Read-outs that look alike come from different tables or passages of the source.
How the values were obtained:
[1] = biological target: T1, topoisomerase I (Topo I) (Homo sapiens, UniProt P11387); experiment: Topo I enzyme-inhibitory activity by agarose-gel electrophoresis (plasmid relaxation); format: biochemical
T1 sequence (P11387 1-765): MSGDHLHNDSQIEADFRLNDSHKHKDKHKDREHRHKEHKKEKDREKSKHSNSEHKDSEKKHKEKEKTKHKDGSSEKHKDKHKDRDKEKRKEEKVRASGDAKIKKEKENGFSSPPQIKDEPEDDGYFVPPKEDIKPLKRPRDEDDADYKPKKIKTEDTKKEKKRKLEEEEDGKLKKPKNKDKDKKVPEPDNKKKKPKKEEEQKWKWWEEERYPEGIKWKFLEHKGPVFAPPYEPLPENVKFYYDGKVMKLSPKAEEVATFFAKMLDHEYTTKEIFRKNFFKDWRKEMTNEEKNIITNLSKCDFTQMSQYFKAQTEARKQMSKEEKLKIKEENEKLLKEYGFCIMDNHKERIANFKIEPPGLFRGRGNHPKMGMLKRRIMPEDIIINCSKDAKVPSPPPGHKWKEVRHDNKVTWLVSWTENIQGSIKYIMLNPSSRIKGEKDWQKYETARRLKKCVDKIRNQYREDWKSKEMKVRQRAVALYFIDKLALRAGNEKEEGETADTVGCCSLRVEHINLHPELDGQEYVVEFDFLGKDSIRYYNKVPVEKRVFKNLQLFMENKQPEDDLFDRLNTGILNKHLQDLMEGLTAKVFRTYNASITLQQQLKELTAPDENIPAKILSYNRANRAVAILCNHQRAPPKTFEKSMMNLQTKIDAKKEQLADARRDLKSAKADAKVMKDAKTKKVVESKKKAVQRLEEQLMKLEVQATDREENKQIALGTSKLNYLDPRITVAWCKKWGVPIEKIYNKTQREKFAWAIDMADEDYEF
Description: Test Example 1. Determination of Topo I Enzyme-Inhibitory Activity by Agarose-Gel Electrophoresis
Principle: Type-I topoisomerase (Topo I) relaxes positive and negative supercoils by introducing transient single-strand breaks and forming reversible cleavage complexes (Topo I-DNA covalent complexes). Gel electrophoresis can resolve DNA species of identical molecular weight but different topology: supercoiled plasmid migrates fastest, whereas the nicked, relaxed form moves more slowly. Quantifying the decrease in supercoiled DNA therefore provides a direct measure of Topo I activity.
Experimental Procedure: A 1× reaction buffer was prepared (20 mM Tris-HCl pH 7.5, 200 mM NaCl, 0.25 mM EDTA, 5 % (v/v) glycerol, 0.5 µg pNO1 plasmid substrate). Test compounds (5 % DMSO final) were added to the buffer, followed by Topo I enzyme (0.75 U per reaction). After gentle mixing, reactions were incubated at 37 °C for 30 min. Positive (enzyme + vehicle) and negative (no enzyme) controls were included in parallel. Reactions were terminated by adding STEB buffer and chloroform/iso-amyl alcohol (24:1, v/v), vortexed and centrifuged for 2 min. The aqueous (upper) phase was loaded onto a 1 % (w/v) agarose gel, electrophoresed for 1-2 h, stained with GelRed, and imaged under UV trans-illumination.
Data Analysis: Band intensities of supercoiled DNA were quantified with image-analysis software. Relaxation activity (%) was calculated as (Max-Sample)/ (Max-Min)*100%, where Max = intensity of the no-enzyme negative control, Min = intensity of the vehicle-only positive control, and Sample = intensity of the compound-treated lane. Dose-response data (compound concentration, X; relaxation activity %, Y) were fitted in Excel or GraphPad Prism 5.0 using the four-parameter logistic equation: Y=Bottom + (Top-Bottom)/(1+(IC50/X)[…]) to derive the IC50 value for each compound.
Table 1. Compound-mediated inhibition of topoisomerase I (Topo I) enzymatic activity

[2] = in vivo; settings: male, CD-1, mouse
Description: Test Example 3. Pharmacokinetic Study for Determining Compound Concentrations in Mice by LC-MS/MS
Principle: LC-MS/MS is used to quantify the plasma concentrations of the test article at successive time points, generating an in-vivo pharmacokinetic profile.
Procedure: The test compound was dissolved in DMSO to prepare a 10 mg/mL stock solution. This stock was further diluted to 1 mg/mL with a vehicle consisting of 10 % DMSO + 10 % Solutol HS-15 + 80 % saline. Male CD-1 mice (JH Laboratory Animal Co., LTD) were employed; six animals were assigned per compound group. […] Serial blood samples (~50 µL whole blood, K2EDTA anticoagulant) were collected at 0.083, 0.25, 0.5, 1, 2, 4, 8 and 24 h (three mice per time point in a crossover design). Blood was centrifuged at 6 000 g for 5 min at 4 °C; plasma was harvested and stored at -70 °C until analysis. Plasma drug concentrations were determined by LC-MS/MS.
Calibration Curve and QC Preparation: Working solutions were prepared by dilution with MeOH:H2O (1:1). For each calibration or QC level, 3 µL of working solution was spiked into 57 µL of blank mouse plasma.
Sample Processing: To 30 µL of plasma was added 200 µL of methanol containing the internal standard (propranolol, 40 ng mL^-1). After vortex-mixing for 1 min, the mixture was centrifuged at 12 000 rpm for 10 min. A 100 µL aliquot of the supernatant was transferred to a clean plate for injection.
Pharmacokinetic Analysis: Concentration-time data were analyzed with WinNonlin 8.2 using a non-compartmental approach to derive PK parameters including Cmax, Tmax, AUC and terminal elimination half-life (t1/2). AUC was calculated by the linear-up/log-down trapezoidal method. Table 3. Pk parameters of compounds

[3] = system: HCT116 cells; experiment: Inhibition of cell proliferation by CTG (CellTiter-Glo) luminescence assay; format: cell-based; settings: Homo sapiens, HCT-116; 72 h incubation, CellTiter-Glo; read-out: HCT116, IC50
Description: Test Example 2. Determination of Compound-Mediated Inhibition of Cell Proliferation by CTG (CellTiter-Glo) Luminescence Assay
Principle: The Promega CellTiter-Glo™ luciferase reagent was used. Luciferase consumes ATP to generate light; metabolically active cells continuously produce ATP through respiration and other processes. After adding an equal volume of CellTiter-Glo™ reagent to the culture medium, the resulting luminescence is directly proportional to the ATP content, which in turn correlates with the number of viable cells. Thus, the assay quantifies compound-induced suppression of cell proliferation.
Experimental Procedure: HCT116 cells (ATCC) were revived in complete medium (McCoy's 5a + 10 % FBS). After two passages, exponentially growing cells were harvested, counted, and resuspended to the appropriate density. A 100 µL aliquot of cell suspension (2 000 cells per well) was seeded into 96-well plates and incubated overnight (37 °C, 5 % CO2, 100 % relative humidity). Test compounds were dissolved in DMSO to prepare 10 mM stock solutions and serially diluted 1:3 in DMSO to generate nine concentration steps. Each DMSO solution was further diluted 200-fold into medium; 25 µL of the resulting solutions were added to the cell plates (final DMSO concentration […]). After 72 h incubation (37 °C, 5 % CO2), 50 µL of CellTiter-Glo reagent was added per well. Plates were shaken gently, incubated for 30 min at room temperature in the dark, and luminescence was read on an EnVision multimode reader. Percent inhibition was calculated as: Inhibition % = (1−As/Ac) × 100, [formula] where As = signal from compound-treated wells and Ac = signal from DMSO-only control wells. Concentration-response data were fitted in Excel with the XLfit add-in using the four-parameter logistic equation: Y = Bottom + (Top−Bottom)/[1+((IC50/X))^(∧)HillSlope], [formula] to derive the IC50 value for each compound. Table 2. IC50 of compounds

[4] = read-out: inhibition of topoisomerase I (Topo I) enzymatic activity, IC50; 0.75 U Topo I, pNO1 plasmid, 37 °C, 30 min; compounds listed by group (Group A / Group B)
[5] = 0.75 U Topo I, pNO1 plasmid, 37 °C, 30 min; compounds listed by group (Group A / Group B); read-out: inhibition of topoisomerase I (Topo I) enzymatic activity, IC50

CC[C@@]1(O)C(=O)OCc2c1cc1n(c2=O)Cc2c-1c(=O)c1cc3c(cc1n2CCN(C)C1CCCC1)OCO3 [Example 179]
IC50 [1, 4]: 200 to 500 nM

CC[C@@]1(O)C(=O)OCc2c1cc1n(c2=O)Cc2c-1c(=O)c1cc(F)ccc1n2[C@@H]1CCN(CC2CC2)C1 [Example 259, (S)-11-((R)-1-(cyclopropylmethyl)pyrrolidin-3-yl)-4-ethyl-8-fluoro-4-hydroxy-1H-pyrano[3',4':6,7]indolizino[2,1-b]quinoline-3,6,14(4H,11H,12H)-trione]
bioavailability [2]: 46.6% | AUC(0-t) ([2]; iv, 1 mg/kg): 524 ng·h/mL | Cmax ([2]; iv, 1 mg/kg): 497 ng/mL | clearance ([2]; iv, 1 mg/kg): 31.8 mL/min/kg | half-life ([2]; iv, 1 mg/kg): 0.96 h | AUC(0-t) ([2]; po, 10 mg/kg): 2400 ng·h/mL | Cmax ([2]; po, 10 mg/kg): 1230 ng/mL | Tmax ([2]; po, 10 mg/kg): 0.83 h | half-life ([2]; po, 10 mg/kg): 6.24 h | IC50 [3]: < 20 nM

CC[C@@]1(O)C(=O)OCc2c1cc1n(c2=O)Cc2c-1c(=O)c1cc(F)ccc1n2CCN1CCCC1 [Example 193]
IC50 [1, 4]: 200 to 500 nM

CC[C@@]1(O)C(=O)OCc2c1cc1n(c2=O)Cc2c-1c(=O)c1cc(F)c([C@H](C)O)cc1n2C1CCCC1 (single isomer, unassigned) [Example 293]
IC50 [1, 5]: 200 to 500 nM

CC[C@@]1(O)C(=O)OCc2c1cc1n(c2=O)Cc2c-1c(=O)c1cc(F)ccc1n2[C@@H]1CCN(C2CCCC2)C1 [Example 257, (S)-4-ethyl-8-fluoro-4-hydroxy-11-((R)-1-cyclopentylpyrrolidin-3-yl)-1,12-dihydro-14H-pyrano[3',4':6,7]indolizino[2,1-b] quinoline-3,6,14(4H,11H)-trione]
bioavailability [2]: 40.2% | AUC(0-t) ([2]; iv, 1 mg/kg): 352 ng·h/mL | Cmax ([2]; iv, 1 mg/kg): 635 ng/mL | clearance ([2]; iv, 1 mg/kg): 47.4 mL/min/kg | half-life ([2]; iv, 1 mg/kg): 1.24 h | AUC(0-t) ([2]; po, 10 mg/kg): 1370 ng·h/mL | Cmax ([2]; po, 10 mg/kg): 528 ng/mL | Tmax ([2]; po, 10 mg/kg): 0.83 h | half-life ([2]; po, 10 mg/kg): 7.95 h | IC50 [3]: < 20 nM

CC[C@@]1(O)C(=O)OCc2c1cc1n(c2=O)Cc2c-1c(=O)c1cc(F)c(CC(C)O)cc1n2C1CCCC1 (stereo partly drawn) [Example 292, (4S)-11-cyclopentyl-4-ethyl-8-fluoro-4-hydroxy-9-(2-hydroxypropyl)-1,12-dihydro-14H-pyrano[3,4:6,7]indolizino[2,1-b]quinoline-3,6,14(4H,11H)-trione]
IC50 [1, 5]: 200 to 500 nM

Reference: patent EP4778929A1, “NOVEL TYPE I TOPOISOMERASE INHIBITOR, AND PREPARATION METHOD THEREFOR AND USE THEREOF” (priority 2023, dated 2025)
